2 sequences from patent US20240293500A1, “PEPTIDE HAVING ANTICANCER ACTIVITY, AND USE THEREOF” (Korea University Research and Business Foundation, priority 2021, published 2024) can be followed below.

Assay [1] concerns MDA-MB-231 triple-negative breast cancer cell line. The assay can be described thus: MTT assay, co-treatment of peptide with anticancer agent. The class given is cell-based. The settings on record: for cell proliferation on co-treatment with paclitaxel compared to paclitaxel alone: MDA-MB-231, 1 μM peptide + 5.4 nM paclitaxel (FIGS. 3 and 4). On the procedure: To confirm the cytotoxic and anti-proliferative effect of a peptide discovered in the present invention on cancer cells and normal cells, a 3-(4,5-diemthylthiazolyl-2)-2,5-diphenyltetrazolium bromide (MTT) assay was performed. The MTT assay is a method of measuring the growth of living cells and measuring cell viability using MTT reduction by mitochondrial reductase in living cells.
In addition, peptides and anticancer agents were administered together to the MDA-MB-231 triple-negative breast cancer cell line to explore effects associated with drug co-administration and drug resistance. Triple-negative (ER−/PR−/HER2−) breast cancer is a type of breast cancer that is difficult to treat because it is known to have drug resistance to existing hormone therapy and anticancer drugs, and is a suitable model for research on drug resistance and co-administration.
Cell viability was evaluated by an MTT assay by treating MDA-MB-231 cells with 1 μM of the peptide (No. 1 or 2), and 9 μM abemaciclib or 5.4 nM paclitaxel.
A general note: Tetrazolium assays rely on reduction of a dye to a coloured formazan, in cell work by metabolically active cells.

Assay [2] concerns matrix metallopeptidase 9 (MMP-9). The assay can be described thus: MMP-9 expression by RT-PCR. The class given is cell-based. The following applies: MDA-MB-231, 1 μM peptide, 24 hours, vs control (FIG. 6). Here is the method: MDA-MB-231 cells were cultured and treated with 1 μM of a peptide (No. 1 or 2). After 24 hours, RNA was isolated from the cells and the expression level of matrix metallopeptidase 9 (MMP-9), which is a key cell migration factor, was confirmed through RT-PCR.

The subject of assay [3] is extracellular signal-regulated kinase (ERK) protein. The assay can be described thus: p-ERK level by Western blot. The following applies: MDA-MB-231, 1 μM peptide, 24 hours, vs control (FIG. 7). The class given is cell-based. On the procedure: In addition, the change in phosphorylation of extracellular signal-regulated kinase (ERK) protein caused by an anticancer peptide was confirmed. ERK gene is an indicator of drug resistance and inhibition of the growth and apoptosis of cancer cells. The MDA-MB-231 cells were cultured and treated with 1 μM of a peptide (No. 1 or 2). After 24 hours, proteins were isolated from the cells, and a p-ERK level was confirmed by Western blot.
Background: A western blot detects proteins with antibodies after separation by electrophoresis.

The test system of a further assay is lamin B1 protein. The assay can be described thus: Lamin B1 cleavage by western blotting (apoptosis marker). The class given is cell-based. The following applies: MDA-MB-231, 1 μM peptide, 24 hours, nuclear fraction western blotting (FIG. 8). Here is the method:
Next, to confirm the relationship between the anticancer peptide and apoptosis, the degree of cleavage of lamin B1 protein was confirmed. Lamin B1 is originally a type of nuclear protein that is degraded by caspase in apoptosis and used as a biomarker of apoptosis. The MDA-MB-231 cells were cultured and treated with 1 μM of a peptide (No. 1 or 2). After 24 hours, the cells were washed with PBS twice, and lysed with lysis buffer containing NP-40. The nucleus and cytoplasm were separated by centrifugation, and western blotting was performed on each nuclear and cytoplasmic fraction. Here, to determine the degree of separation of the nucleus and cytoplasm, α-tubulin, which is a cytoplasmic marker, and lamin B1 were simultaneously analyzed.

Assay [4] relates to MDA-MB-231 xenograft tumor. The assay can be described thus: Xenograft tumor model, tumor size. The class given is in vivo, BALB/c nude mice. The settings on record: 2.5 mg/kg intraperitoneally daily, 6 weeks, vs PBS control (FIG. 9). Here is the method:
A xenograft tumor model was constructed by injecting MDA-MB-231 cells into immunodeficient BALB/c nude mice and forming tumors for 1 week. Mice with tumors were randomly divided into a control and an experimental group. The control and the experimental group were intraperitoneally injected daily with PBS (the same volume as a peptide) and the No. 1 peptide (2.5 mg/kg), respectively, and then observed for a total of 6 weeks. During the experimental period, a tumor size was measured with a digital caliper every week, and the final tumor size was compared at week 6.

“EKAEEDRYFR (listed as Mus musculus) [No. 1]”: in assay [1], the “cell proliferation on co-treatment with paclitaxel compared to paclitaxel alone” value is listed as “further inhibited”. Further, in assay [2], the “expression of MMP-9” value was “significantly reduced”. The p-ERK level result in assay [3] is given as “significantly reduced”. Further, the “cleavage of lamin B1 protein” value in the assay on lamin B1 protein was “cleaved”. For the same sequence, in assay [4], the “tumor growth (tumor size)” value was “significant tumor growth inhibitory effect”.

Consider “EQAEEERYFR (listed as Homo sapiens) [No. 2]”, for which the “cell proliferation on co-treatment with paclitaxel compared to paclitaxel alone” value in assay [1] is recorded as “further inhibited”. The “cell proliferation on co-treatment with abemaciclib compared to abemaciclib alone” value in assay [1] (MDA-MB-231, 1 μM peptide + 9 μM abemaciclib (FIG. 4)) was “further inhibited”. Also, in assay [2], the “expression of MMP-9” value is given as “significantly reduced”. In addition, in assay [3], the p-ERK level result is “significantly reduced”. In addition, the “cleavage of lamin B1 protein” value with lamin B1 protein was “cleaved”.
